Reference: US9394299B2, “Rilyazine derivatives and compositions for the treatment of cancer” (Warner Babcock Institute for Green Chemistry, LLC, priority 2013, dated 2016)

How the values were obtained:
MCF-shWISP cells = assay: MTT cell proliferation assay, MCF-shWISP; type: cell-based; details: 72 h-exposure, 30-0.041 μM
Protocol: (§1) In vitro characterizing of the effects of rilyazine analogs on cell proliferation and apoptosis in the paired epithelial/mesenchymal lines (Colo205/Colo-R, DLD/DLD-SNAIL and MCF7/MCF7-WISP) was performed in an independent laboratory.
(§2) The Dose Preparation is based on a reconstitute in DMSO. The Concentration of the stock solution is 100 mM. Storage of the stock solution is under −80° C.
(§3) Working drug solution of rilyazine analogs: A stock solution of 100 mM OTX015 in DMSO was prepared and stored at −80° C. For growth inhibition studies, dilution series were prepared by (1) diluting stock solution into DMSO, then (2) diluting 1:300 in culture medium supplemented with 10% FBS giving a final concentration in 0.3% DMSO in the 96-well plates.
(§4) Cell lines. Cells lines were maintained in RPMI 1640 (PAA Laboratories, France) supplemented with 10% fetal bovine serum (FBS; PAA Laboratories, France), 2 mM glutamine (PAA Laboratories, France), 100 units/ml penicillin and 100 μg/ml streptomycin (PAA Laboratories, France). Cells were free of Mycoplasma.
(§5) Proliferation assays. Cell proliferation was determined using the MTT assay (3-[4,5-dimethylthiazol-2-yl]-2,5-diphenyltetrazolium bromide; Sigma-Aldrich, St. Louis, Mo.). […] After incubation, the supernatant was discarded, the cell pellet was resuspended in 0.1 mL DMSO, and the absorbance was measured at 560 nm using a microplate reader (Thermo, France). […]

OVCAR-5 (ovarian cancer) = assay: NCI five point dosing, OVCAR-5; type: cell-based, human
Protocol: RL-4 was evaluated against the 60 cell panel at five concentration levels, 10^−8 M, 10^−7 M, 10^−6 M, 10^−5 M and 10^−4 M.
(§6) The human tumor cell lines of the cancer screening panel are grown in RPMI 1640 medium containing 5% fetal bovine serum and 2 mM L-glutamine. Cells are inoculated into 96 well microtiter plates in 100 μL at plating densities ranging from 5,000 to 40,000 cells/well depending on the doubling time of individual cell lines. After cell inoculation, the microtiter plates are incubated at 37° C., 5% CO2, 95% air and 100% relative humidity for 24 h prior to addition of experimental drugs. […]
(§7) Following drug addition, the plates are incubated for an additional 48 h at 37° C., 5% CO2, 95% air, and 100% relative humidity. […] Bound stain is subsequently solubilized with 10 mM trizma base, and the absorbance is read on an automated plate reader at a wavelength of 515 nm. […]
The percentage growth is calculated at each of the five drug concentrations levels using the seven absorbance measurements, namely absorbance at time zero (Tz), absorbance of control after incubation (C), and absorbance of test sample after incubation in the presence of drug at each of the five concentration levels (Ti). The Growth Percent is calculated as it was for the 1 dose assay: Growth Percent=[(Ti−Tz)/(C−Tz)]×100 for cell line/drug combinations for which Ti≧Tz. […]

[1] = system: NCI-H552 (non-small cell lung cancer); assay: NCI single point 10 μM, NCI-H552; type: cell-based, human; details: 10^−5 M
Protocol: The screening is a two-stage process, beginning with the evaluation of all compounds against 60 cell lines at a single dose of 10^−5 M.
as §6, §7
For the 1-dose 60 cell testing, the Growth Percent is calculated for each cell line/drug combination from the absorbance measurement for the no-drug control (C), the absorbance at time zero (Tz) and the absorbance measurement after incubation of the cells in the presence of drug (Ti): Growth Percent=[(Ti−Tz)/(C−Tz)]×100 for cell line/drug combinations for which Ti≧Tz. […]

MCF-7 cells = assay: MTT cell proliferation assay, MCF-7; type: cell-based; details: 72 h-exposure, 30-0.041 μM
Protocol: as §1, §2, §3, §4, §5

S=c1c2ncccc2c(-c2ccccn2)nn1C1CCCCC1 [RL-4, 7-cyclohexyl-5-(pyridin-2-yl)pyrido[2,3-d]pyridazine-8(7H)-thione]
anti-proliferative effects (in words) (MCF-shWISP cells): dose-dependent anti-proliferative effects | Growth Percent (OVCAR-5 (ovarian cancer); 10^−4 M dose): 54% | GI50 (OVCAR-5 (ovarian cancer); Homo sapiens, five point dosing): > 100 µM | Growth Percent [1]: 91.26% | anti-proliferative effects (in words) (MCF-7 cells): dose-dependent anti-proliferative effects
